This is an account of results in patent publication US7019015B2, “Fungicide for plants” (Valent BioSciences, Inc., priority 2003, dated 2006).

Each structure is given as a SMILES string.

One data set concerns Cercospora arachidicola. Put plainly: Contact evaluation (microtiter plate), Cercospora arachidicola. Format: cell-based. The procedure: (§1) Compound solution: Contact evaluations were conducted to determine the anti-fungal activity of each compound against Botrytis cinerea, Sclerotinia sclerotiorum, Pythium aphanidermatum, Rhizoctonia solani, Cercospora arachidicola, Mycosphaerella fijiensis, and Monilinia laxa. Five milligrams of each compound were dissolved in 0.5 milliliter of DMSO for a compound stock solution of 1.0% w/v. Compound stock solutions were serial diluted with DMSO to 20, 10, and 2 ppm final well concentration. Fungi preparation: Botrytis cinerea spores were taken from 6-week-old cultures grown at 22C on full strength potato dextrous agar (PDA) plates. Sclerotinia sclerotiorum, Pythium aphanidermatum, Rhizoctonia solani, and Monilinia laxa mycelia were taken from 4- to 10-day-old shake flask cultures grown at room temperature on full strength potato dextrous broth (PDB). Cercospora arachidicola mycelia were taken from 10- to 14-day-old shake flask cultures grown at room temperature on a full strength PDB amended with peanut oil. Mycosphaerella fijiensis mycelia were taken from 10- to 14-day-old shake flask cultures grown at room temperature on V8 juice broth. Sclerotinia sclerotiorum, Pythium aphanidermatum, Rhizoctonia solani, Cercospora arachidicola, and Mycosphaerella fijiensis mycelia (0.4 g mycelia) were blended for 45 seconds in 20 mL sterile de-ionized water. Monilinia laxa mycelia (1 g mycelia) was blended for 45 seconds in 30 mL of sterile de-ionized water. Botrytis cinerea spores were diluted with quarter strength PDB to 1×10^5 spores/mL final well concentration. All mycelia were diluted in water (1:5 mycelia:water) before distributing into the wells. Microtiter plate preparation: Compound solution (10 :L), quarter strength PDB (900 :L) and fungi preparation (100 :L) were sequentially distributed into 48-well microtiter plates (n=3 replications/compound/rate). A blank consisted of quarter strength PDB and fungi preparation. […] Final readings were the average of the three wells (Table 1).

The test system of another data set is Mycosphaerella fijiensis. Put plainly: Contact evaluation (microtiter plate), Mycosphaerella fijiensis. It counts as cell-based. The procedure:
as §1

Another data set concerns Pythium aphanidermatum. The data set is described as follows: Contact evaluation (microtiter plate), Pythium aphanidermatum. Format: cell-based. The procedure:
as §1

A further data set has as its system Sclerotinia sclerotiorum. The data set is described as follows: Contact evaluation (microtiter plate), Sclerotinia sclerotiorum. It counts as cell-based. The settings on record: Sclerotinia scierotionum. On the procedure:
as §1

Another data set deals with Monilinia laxa. The data set is described as follows: Contact evaluation (microtiter plate), Monilinia laxa. It counts as cell-based. On the procedure: as §1
The test system of data set [1] is Botrytis cinerea. Put plainly: Detached bean leaf bioassay, fungal control. It counts as in vivo. The note with it: 200 ppm on detached bean leaf; 100 minus percent necrotic area, three days after inoculation. The procedure:
Detached Bean Leaf Bioassay
Compound solution: Compound solutions were prepared by diluting compound stock solutions (1.0% w/v compound in DMSO) to 200 ppm with 0.01% w/v Triton X-100.
Spore solution preparation: Botrytis cinerea spores were taken from 6-week-old cultures grown at 22C on full strength potato dextrous agar (PDA) plates and harvested in 1:16 frozen orange juice concentrate:water. Botrytis cinerea spore solutions were prepared by diluting spore cultures to 5×10^4 spores/mL with 1:16 frozen orange juice concentrate:water.
Plant material: Middle trifoliate leaves of greenhouse grown Phaseolus vulgaris (Bush bean cv. Blue Lake 274) were excised and placed on a plastic grid above a tray containing moist towels.
Treatment method: One half of the adaxial surface of the leaf was treated with the compound solution (100 :L) using a 3 cm Bacti Cell Spreader. A blank consisted of 0.01% w/v Triton X-100. A commercial fungicide control (200 ppm diluted with water) consisted of Scala. […]
Fungal control rating: Three days after inoculation with Botrytis, the percent necrotic area under the inoculation droplet was determined. Since the areas under the blank (0.01% w/v Triton X-100) were 100% infected, fungal control was expressed as 100 minus the percent necrotic area, and thus 0% infected is 100% fungal control (n=3 leaves/compound, 5 inoculation droplets/leaf, Table 2).

Data set [2] deals with Botrytis cinerea. Put plainly: Contact evaluation (microtiter plate), Botrytis cinerea. Format: cell-based. On the procedure: as §1
For data set [3], the system named is Phaseolus vulgaris (Bush bean cv. Blue Lake 274) leaves. Put plainly: Detached bean leaf bioassay, phytotoxicity rating. It counts as in vivo. On the procedure: Compound solution: Compound solutions were prepared by diluting compound stock solutions (1.0% w/v compound in DMSO) to 200 ppm with 0.01% w/v Triton X-100. Plant material: Middle trifoliate leaves of greenhouse grown Phaseolus vulgaris (Bush bean cv. Blue Lake 274) were excised and placed on a plastic grid above a tray containing moist towels. Treatment method: One half of the adaxial surface of the leaf was treated with the compound solution (100 :L) using a 3 cm Bacti Cell Spreader. A blank consisted of 0.01% w/v Triton X-100. A commercial fungicide control (200 ppm diluted with water) consisted of Scala. After the solutions dried, the trays containing the leaves were covered and held one day in a growth chamber (22C). The adaxial surfaces of the leaves were then inoculated with 5–60 :L droplets of Botrytis cinerea spore solution. Phytotoxicity ratings: Phytotoxicity was rated as 0=no phytotoxicity, 1=slight phytotoxicity, 2=moderate phytotoxicity, or 3=excessive phytotoxicity (Table 2).

A further data set relates to Rhizoctonia solani. The data set is described as follows: Contact evaluation (microtiter plate), Rhizoctonia solani. The settings on record: Rhizoctinia solani. It counts as cell-based. The procedure:
as §1

Regarding `COc1ccc(C2(OC)c3ccccc3N(c3ccccc3)c3ccccc32)cc1` [formula I, 9-phenyl-10-methoxy-10-(4-methoxyphenyl)-9,10-dihydroacridine], the “Control of fungi (full, partial, none)” value in the data set on Cercospora arachidicola (fungicide rate 2 ppm) is “None”; in the data set on Cercospora arachidicola (fungicide rate 10 ppm) it was “Full”; with Cercospora arachidicola (fungicide rate 20 ppm) it was “Full”; in the data set on Mycosphaerella fijiensis (fungicide rate 2 ppm), “None”; in the data set on Mycosphaerella fijiensis (fungicide rate 10 ppm) it was “Partial”; in the data set with Mycosphaerella fijiensis (fungicide rate 20 ppm), “Full”. Further, the “Control of fungi (full, partial, none)” value with Pythium aphanidermatum (fungicide rate 2 ppm) is recorded as “Full”; with Pythium aphanidermatum (fungicide rate 10 ppm), “Full”; with Pythium aphanidermatum (fungicide rate 20 ppm) it was “Full”; with Sclerotinia sclerotiorum (fungicide rate 2 ppm), “Partial”; with Sclerotinia sclerotiorum (fungicide rate 10 ppm) it was “Full”; with Sclerotinia sclerotiorum (fungicide rate 20 ppm) it was “Full”. For the same compound, the “Control of fungi (full, partial, none)” value is listed as “Full” with Monilinia laxa (fungicide rate 2 ppm); “Full” in the data set with Monilinia laxa (fungicide rate 10 ppm); “Full” in the data set on Monilinia laxa (fungicide rate 20 ppm); “Partial” in the data set with Botrytis cinerea [2] (fungicide rate 2 ppm); “Full” with Botrytis cinerea [2] (fungicide rate 10 ppm); “Full” in the data set on Botrytis cinerea [2] (fungicide rate 20 ppm). Also, the “Control of fungi (full, partial, none)” value in the data set on Rhizoctonia solani (fungicide rate 2 ppm), in the data set with Rhizoctonia solani (fungicide rate 10 ppm) and with Rhizoctonia solani (fungicide rate 20 ppm) was “Full” in each case. Also, the “Botrytis cinerea control (200 ppm)” value in the data set with Botrytis cinerea [1] was 80%. In addition, in data set [3], the “Phytotoxity (200 ppm)” value is reported as “Slight”.
